Results as given in ChEMBL document CHEMBL5042477, “Potent Cyclic Peptide Inhibitors of FXIIa Discovered by mRNA Display with Genetic Code Reprogramming” (J Med Chem, 2021).
Where a SMILES comes first, the peptide text is derived from it. Bridges are numbered along the chain shown (N, C = ends). [ ]: non-standard residue; d: D form. Phe(3-CF3) = N[C@@H](Cc1cccc(C(F)(F)F)c1)C(=O)O; Phe(4-CF3) = N[C@@H](Cc1ccc(C(F)(F)F)cc1)C(=O)O; Tyr(3-F) = N[C@@H](Cc1ccc(O)c(F)c1)C(=O)O; Phe(3-CN) = N#Cc1cccc(C[C@H](N)C(=O)O)c1; Phe(2-CN) = N#Cc1ccccc1C[C@H](N)C(=O)O; Phe(2-OMe) = COc1ccccc1C[C@H](N)C(=O)O; Phe(3-F) = N[C@@H](Cc1cccc(F)c1)C(=O)O; Phe(4-Me) = Cc1ccc(C[C@H](N)C(=O)O)cc1; Phe(2-Me) = Cc1ccccc1C[C@H](N)C(=O)O; hPhe = N[C@@H](CCc1ccccc1)C(=O)O; 2Pal = N[C@@H](Cc1ccccn1)C(=O)O; 3Pal = N[C@@H](Cc1cccnc1)C(=O)O; Tic = O=C(O)[C@@H]1Cc2ccccc2CN1; Agb = N=C(N)NCC[C@H](N)C(=O)O; Orn = NCCC[C@H](N)C(=O)O

Target: T1, Coagulation factor XII (Homo sapiens, UniProt P00748)
T1 sequence (P00748 whole entry): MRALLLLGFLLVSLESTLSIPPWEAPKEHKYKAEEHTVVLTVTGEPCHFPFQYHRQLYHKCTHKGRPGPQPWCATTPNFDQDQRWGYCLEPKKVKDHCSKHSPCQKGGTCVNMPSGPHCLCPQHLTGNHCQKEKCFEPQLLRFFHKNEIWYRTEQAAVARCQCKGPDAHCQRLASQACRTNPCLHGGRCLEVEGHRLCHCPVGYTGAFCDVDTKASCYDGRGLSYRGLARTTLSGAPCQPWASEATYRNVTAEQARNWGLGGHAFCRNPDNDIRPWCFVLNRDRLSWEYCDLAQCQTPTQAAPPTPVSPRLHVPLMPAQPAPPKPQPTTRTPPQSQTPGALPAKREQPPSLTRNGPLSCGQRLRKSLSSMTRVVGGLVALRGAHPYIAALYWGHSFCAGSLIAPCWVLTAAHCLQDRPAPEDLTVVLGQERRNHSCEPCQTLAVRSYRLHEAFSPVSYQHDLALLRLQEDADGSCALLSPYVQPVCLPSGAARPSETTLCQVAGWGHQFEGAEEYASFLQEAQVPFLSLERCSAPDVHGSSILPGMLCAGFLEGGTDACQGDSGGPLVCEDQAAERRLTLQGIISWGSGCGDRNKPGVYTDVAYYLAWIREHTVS
Test: Inhibition of human factor 12a using H-D-Pro-Phe-Arg-p-nitroanilide as chromogenic substrate assessed as liberation of p-nitroaniline measured every 5 mins for 60 min by multimode plate reader analysis

CC(C)C[C@@H]1NC(=O)[C@H](Cc2ccc(O)cc2)NC(=O)CSC[C@@H](C(N)=O)NC(=O)CNC(=O)CNC(=O)[C@H](CCCNC(=N)N)NC(=O)[C@H](CC(=O)O)NC(=O)[C@H](CCCCN)NC(=O)[C@@H]2CCCN2C(=O)[C@H](CCCNC(=N)N)NC(=O)[C@@H]2Cc3ccccc3CN2C(=O)[C@H](CCCNC(=N)N)NC1=O ({CH2CO}-YLR[Tic]RPKDRGGC-NH2; thioether N-12)
IC50: 22000 nM

CC(C)C[C@@H]1NC(=O)[C@H](CCCNC(=N)N)NC(=O)[C@H](C)NC(=O)[C@H](Cc2ccc(O)cc2)NC(=O)CSC[C@@H](C(N)=O)NC(=O)CNC(=O)CNC(=O)[C@H](CCC(N)=O)NC(=O)[C@H](CC(N)=O)NC(=O)[C@H]([C@@H](C)O)NC(=O)[C@@H]2CCCN2C(=O)[C@H](CCCCN)NC1=O ({CH2CO}-YARLKPTNQGGC-NH2; thioether N-12)
IC50: 410000 nM

C[C@@H]1NC(=O)[C@H](Cc2ccc(O)cc2)NC(=O)CSC[C@@H](C(N)=O)NC(=O)CNC(=O)CNC(=O)[C@H](CCCNC(=N)N)NC(=O)[C@H](CC(=O)O)NC(=O)[C@H](CCCCN)NC(=O)[C@@H]2CCCN2C(=O)[C@H](CCCNC(=N)N)NC(=O)[C@H](Cc2ccccc2)NC(=O)[C@H](CCCNC(=N)N)NC1=O ({CH2CO}-YARFRPKDRGGC-NH2; thioether N-12)
IC50: 290000 nM

CC(C)C[C@@H]1NC(=O)[C@H](Cc2ccc(O)cc2)NC(=O)CSC[C@@H](C(N)=O)NC(=O)CNC(=O)CNC(=O)[C@H](CCCNC(=N)N)NC(=O)[C@H](CC(=O)O)NC(=O)[C@H](CCCCN)NC(=O)[C@@H]2CCCN2C(=O)[C@H](C)NC(=O)[C@H](Cc2ccccc2)NC(=O)[C@H](CCCNC(=N)N)NC1=O ({CH2CO}-YLRFAPKDRGGC-NH2; thioether N-12)
IC50: 79000 nM

CC(C)C[C@@H]1NC(=O)[C@H](Cc2ccc(O)cc2)NC(=O)CSC[C@@H](C(N)=O)NC(=O)CNC(=O)CNC(=O)[C@H](CCC(N)=O)NC(=O)[C@H](CC(N)=O)NC(=O)[C@H]([C@@H](C)O)NC(=O)[C@@H]2CCCN2C(=O)[C@H](CCCCN)NC(=O)[C@H](C)NC(=O)[C@H](CCCNC(=N)N)NC1=O ({CH2CO}-YLRAKPTNQGGC-NH2; thioether N-12)
IC50: 13000 nM

CC(C)C[C@@H]1NC(=O)[C@H](Cc2ccc(O)cc2)NC(=O)CSC[C@@H](C(N)=O)NC(=O)CNC(=O)CNC(=O)[C@H](CCCNC(=N)N)NC(=O)[C@H](CC(=O)O)NC(=O)[C@H](CCCCN)NC(=O)[C@@H]2CCCN2C(=O)[C@H](CCCNC(=N)N)NC(=O)[C@H](Cc2ccccc2C#N)NC(=O)[C@H](CCCNC(=N)N)NC1=O ({CH2CO}-YLR[Phe(2-CN)]RPKDRGGC-NH2; thioether N-12)
IC50: 120 nM

Cc1ccc(C[C@@H]2NC(=O)[C@H](CCCNC(=N)N)NC(=O)[C@H](CC(C)C)NC(=O)[C@H](Cc3ccc(O)cc3)NC(=O)CSC[C@@H](C(N)=O)NC(=O)CNC(=O)CNC(=O)[C@H](CCCNC(=N)N)NC(=O)[C@H](CC(=O)O)NC(=O)[C@H](CCCCN)NC(=O)[C@@H]3CCCN3C(=O)[C@H](CCCNC(=N)N)NC2=O)cc1 ({CH2CO}-YLR[Phe(4-Me)]RPKDRGGC-NH2; thioether N-12)
IC50: 56 nM

CC(C)C[C@@H]1NC(=O)[C@H](Cc2ccc(O)cc2)NC(=O)CSC[C@@H](C(N)=O)NC(=O)CNC(=O)CNC(=O)[C@H](CCCNC(=N)N)NC(=O)[C@H](CC(=O)O)NC(=O)[C@H](CCCCN)NC(=O)[C@@H]2CCCN2C(=O)[C@H](CCCNC(=N)N)NC(=O)[C@H](Cc2cccc(C(F)(F)F)c2)NC(=O)[C@H](CCCNC(=N)N)NC1=O ({CH2CO}-YLR[Phe(3-CF3)]RPKDRGGC-NH2; thioether N-12)
IC50: 93 nM

CC(C)C[C@@H]1NC(=O)[C@H](Cc2ccc(O)cc2)NC(=O)CSC[C@@H](C(N)=O)NC(=O)CNC(=O)CNC(=O)[C@H](CCCNC(=N)N)NC(=O)[C@H](CC(=O)O)NC(=O)[C@H](CCCCN)NC(=O)[C@@H]2CCCN2C(=O)[C@H](CCCNC(=N)N)NC(=O)[C@H](Cc2ccc(C(F)(F)F)cc2)NC(=O)[C@H](CCCNC(=N)N)NC1=O ({CH2CO}-YLR[Phe(4-CF3)]RPKDRGGC-NH2; thioether N-12)
IC50: 110 nM

CC(C)C[C@@H]1NC(=O)[C@H](Cc2ccc(O)cc2)NC(=O)CSC[C@@H](C(N)=O)NC(=O)CNC(=O)CNC(=O)[C@H](CCCNC(=N)N)NC(=O)[C@H](CC(=O)O)NC(=O)[C@H](CCCCN)NC(=O)[C@@H]2CCCN2C(=O)[C@H](CCCNC(=N)N)NC(=O)[C@H](CCc2ccccc2)NC(=O)[C@H](CCCNC(=N)N)NC1=O ({CH2CO}-YLR[hPhe]RPKDRGGC-NH2; thioether N-12)
IC50: 740 nM

CC(C)C[C@@H]1NC(=O)[C@H](Cc2ccc(O)cc2)NC(=O)CSC[C@@H](C(N)=O)NC(=O)CNC(=O)CNC(=O)[C@H](CCCNC(=N)N)NC(=O)[C@H](CC(=O)O)NC(=O)[C@H](CCCCN)NC(=O)[C@@H]2CCCN2C(=O)[C@H](CCCNC(=N)N)NC(=O)[C@H](Cc2ccccn2)NC(=O)[C@H](CCCNC(=N)N)NC1=O ({CH2CO}-YLR[2Pal]RPKDRGGC-NH2; thioether N-12)
IC50: 96 nM

CC(C)C[C@@H]1NC(=O)[C@H](Cc2ccc(O)cc2)NC(=O)CSC[C@@H](C(N)=O)NC(=O)CNC(=O)CNC(=O)[C@H](CCCNC(=N)N)NC(=O)[C@H](CC(=O)O)NC(=O)[C@H](CCCCN)NC(=O)[C@@H]2CCCN2C(=O)[C@H](CCCNC(=N)N)NC(=O)[C@H](Cc2cccnc2)NC(=O)[C@H](CCCNC(=N)N)NC1=O ({CH2CO}-YLR[3Pal]RPKDRGGC-NH2; thioether N-12)
IC50: 170 nM

Cc1ccccc1C[C@@H]1NC(=O)[C@H](CCCNC(=N)N)NC(=O)[C@H](CC(C)C)NC(=O)[C@H](Cc2ccc(O)cc2)NC(=O)CSC[C@@H](C(N)=O)NC(=O)CNC(=O)CNC(=O)[C@H](CCCNC(=N)N)NC(=O)[C@H](CC(=O)O)NC(=O)[C@H](CCCCN)NC(=O)[C@@H]2CCCN2C(=O)[C@H](CCCNC(=N)N)NC1=O ({CH2CO}-YLR[Phe(2-Me)]RPKDRGGC-NH2; thioether N-12)
IC50: 43 nM

CC(C)C[C@@H]1NC(=O)[C@H](Cc2ccc(O)cc2)NC(=O)CSC[C@@H](C(N)=O)NC(=O)CNC(=O)CNC(=O)[C@H](CCCNC(=N)N)NC(=O)[C@H](CC(=O)O)NC(=O)[C@H](CCCCN)NC(=O)[C@@H]2CCCN2C(=O)[C@H](CCCNC(=N)N)NC(=O)[C@H](Cc2cccc(C#N)c2)NC(=O)[C@H](CCCNC(=N)N)NC1=O ({CH2CO}-YLR[Phe(3-CN)]RPKDRGGC-NH2; thioether N-12)
IC50: 160 nM

CC(C)C[C@@H]1NC(=O)[C@H](Cc2ccc(O)cc2)NC(=O)CSC[C@@H](C(N)=O)NC(=O)CNC(=O)CNC(=O)[C@H](CCCNC(=N)N)NC(=O)[C@H](CC(=O)O)NC(=O)[C@H](CCCCN)NC(=O)[C@@H]2CCCN2C(=O)[C@H](CCCN)NC(=O)[C@H](Cc2ccccc2)NC(=O)[C@H](CCCNC(=N)N)NC1=O ({CH2CO}-YLRF[Orn]PKDRGGC-NH2; thioether N-12)
IC50: 2100 nM

CC(C)C[C@@H]1NC(=O)[C@H](Cc2ccc(O)cc2)NC(=O)CSC[C@@H](C(N)=O)NC(=O)CNC(=O)CNC(=O)[C@H](CCCNC(=N)N)NC(=O)[C@H](CC(=O)O)NC(=O)[C@H](CCCCN)NC(=O)[C@@H]2CCCN2C(=O)[C@H](CCCNC(=N)N)NC(=O)[C@H](Cc2cccc(F)c2)NC(=O)[C@H](CCCNC(=N)N)NC1=O ({CH2CO}-YLR[Phe(3-F)]RPKDRGGC-NH2; thioether N-12)
IC50: 66 nM

CC(C)C[C@@H]1NC(=O)[C@H](Cc2ccccc2)NC(=O)CSC[C@@H](C(N)=O)NC(=O)CNC(=O)CNC(=O)[C@H](CCCNC(=N)N)NC(=O)[C@H](CC(=O)O)NC(=O)[C@H](CCCCN)NC(=O)[C@@H]2CCCN2C(=O)[C@H](CCCNC(=N)N)NC(=O)[C@H](Cc2ccccc2)NC(=O)[C@H](CCCNC(=N)N)NC1=O ({CH2CO}-FLRFRPKDRGGC-NH2; thioether N-12)
IC50: 480 nM

CC(C)C[C@@H]1NC(=O)[C@H](Cc2cccnc2)NC(=O)CSC[C@@H](C(N)=O)NC(=O)CNC(=O)CNC(=O)[C@H](CCCNC(=N)N)NC(=O)[C@H](CC(=O)O)NC(=O)[C@H](CCCCN)NC(=O)[C@@H]2CCCN2C(=O)[C@H](CCCNC(=N)N)NC(=O)[C@H](Cc2ccccc2)NC(=O)[C@H](CCCNC(=N)N)NC1=O ({CH2CO}-[3Pal]LRFRPKDRGGC-NH2; thioether N-12)
IC50: 15000 nM

COc1ccccc1C[C@@H]1NC(=O)CSC[C@@H](C(N)=O)NC(=O)CNC(=O)CNC(=O)[C@H](CCCNC(=N)N)NC(=O)[C@H](CC(=O)O)NC(=O)[C@H](CCCCN)NC(=O)[C@@H]2CCCN2C(=O)[C@H](CCCNC(=N)N)NC(=O)[C@H](Cc2ccccc2)NC(=O)[C@H](CCCNC(=N)N)NC(=O)[C@H](CC(C)C)NC1=O ({CH2CO}-[Phe(2-OMe)]LRFRPKDRGGC-NH2; thioether N-12)
IC50: 400000 nM

CC(C)C[C@@H]1NC(=O)[C@H](Cc2ccc(O)c(F)c2)NC(=O)CSC[C@@H](C(N)=O)NC(=O)CNC(=O)CNC(=O)[C@H](CCCNC(=N)N)NC(=O)[C@H](CC(=O)O)NC(=O)[C@H](CCCCN)NC(=O)[C@@H]2CCCN2C(=O)[C@H](CCCNC(=N)N)NC(=O)[C@H](Cc2ccccc2)NC(=O)[C@H](CCCNC(=N)N)NC1=O ({CH2CO}-[Tyr(3-F)]LRFRPKDRGGC-NH2; thioether N-12)
IC50: 150 nM

CC(C)C[C@@H]1NC(=O)[C@H](Cc2ccc(O)cc2)NC(=O)CSC[C@@H](C(N)=O)NC(=O)CNC(=O)CNC(=O)[C@H](CCCNC(=N)N)NC(=O)[C@H](CC(=O)O)NC(=O)[C@H](CCCCN)NC(=O)[C@@H]2CCCN2C(=O)[C@H](CCNC(=N)N)NC(=O)[C@H](Cc2ccccc2)NC(=O)[C@H](CCCNC(=N)N)NC1=O ({CH2CO}-YLRF[Agb]PKDRGGC-NH2; thioether N-12)
IC50: 3300 nM
